Values of other authors as cited in patent publication US10100341B2, “Tailored oils produced from recombinant oleaginous microorganisms” (Corbion Biotech, Inc., priority 2011, dated 2018).

Tested on: Rhodococcus opacus
Details: 1 mg/ml thiostrepton; cited from earlier work

## C=C(NC(=O)C(=C)NC(=O)c1csc(C2=N[C@@H]3c4csc(n4)[C@H]4NC(=O)c5csc(n5)[C@H]([C@](C)(O)[C@@H](C)O)NC(=O)[C@H]5CSC(=N5)/C(=C/C)NC(=O)[C@H]([C@@H](C)O)NC(=O)c5csc(n5)[C@]3(CC2)NC(=O)[C@H](C)NC(=O)C(=C)NC(=O)[C@H](C)NC(=O)[C@H]([C@@H](C)CC)N[C@@H]2C=Cc3c([C@H](C)O)cc(nc3[C@H]2O)C(=O)O[C@@H]4C)n1)C(N)=O [thiostrepton]
  propagation of untransformed cells in medium comprising the agent: unable to propagate
